We go through 32 molecules from US11578061B2, “Inhibitors of LRRK2 kinase” (Halia Therapeutics, Inc., priority 2021, dated 2023).

The experiment has as its target recombinant human LRRK2 (catalytic domain only [amino acids 970-2527], GST-tagged) (Homo sapiens (Human), UniProt Q5S007). Kind of experiment: LRRK2 Enzymatic Assay. The experiment is classed as biochemical. The settings on record: LRRKtide substrate, [32P]-ATP. In short, it runs like this:
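Radiometric P81 filter-binding read-out of [32P]-ATP transfer to LRRKtide (20 μM) by 30 nM GST-LRRK2 970-2527, 2 h at room temperature after 20 min compound preincubation (10 μM–0.5 nM, 1% DMSO). IC50 derived from % remaining activity versus DMSO.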

Sequence of recombinant human LRRK2 (catalytic domain only [amino acids 970-2527], GST-tagged) (Q5S007 970-2527): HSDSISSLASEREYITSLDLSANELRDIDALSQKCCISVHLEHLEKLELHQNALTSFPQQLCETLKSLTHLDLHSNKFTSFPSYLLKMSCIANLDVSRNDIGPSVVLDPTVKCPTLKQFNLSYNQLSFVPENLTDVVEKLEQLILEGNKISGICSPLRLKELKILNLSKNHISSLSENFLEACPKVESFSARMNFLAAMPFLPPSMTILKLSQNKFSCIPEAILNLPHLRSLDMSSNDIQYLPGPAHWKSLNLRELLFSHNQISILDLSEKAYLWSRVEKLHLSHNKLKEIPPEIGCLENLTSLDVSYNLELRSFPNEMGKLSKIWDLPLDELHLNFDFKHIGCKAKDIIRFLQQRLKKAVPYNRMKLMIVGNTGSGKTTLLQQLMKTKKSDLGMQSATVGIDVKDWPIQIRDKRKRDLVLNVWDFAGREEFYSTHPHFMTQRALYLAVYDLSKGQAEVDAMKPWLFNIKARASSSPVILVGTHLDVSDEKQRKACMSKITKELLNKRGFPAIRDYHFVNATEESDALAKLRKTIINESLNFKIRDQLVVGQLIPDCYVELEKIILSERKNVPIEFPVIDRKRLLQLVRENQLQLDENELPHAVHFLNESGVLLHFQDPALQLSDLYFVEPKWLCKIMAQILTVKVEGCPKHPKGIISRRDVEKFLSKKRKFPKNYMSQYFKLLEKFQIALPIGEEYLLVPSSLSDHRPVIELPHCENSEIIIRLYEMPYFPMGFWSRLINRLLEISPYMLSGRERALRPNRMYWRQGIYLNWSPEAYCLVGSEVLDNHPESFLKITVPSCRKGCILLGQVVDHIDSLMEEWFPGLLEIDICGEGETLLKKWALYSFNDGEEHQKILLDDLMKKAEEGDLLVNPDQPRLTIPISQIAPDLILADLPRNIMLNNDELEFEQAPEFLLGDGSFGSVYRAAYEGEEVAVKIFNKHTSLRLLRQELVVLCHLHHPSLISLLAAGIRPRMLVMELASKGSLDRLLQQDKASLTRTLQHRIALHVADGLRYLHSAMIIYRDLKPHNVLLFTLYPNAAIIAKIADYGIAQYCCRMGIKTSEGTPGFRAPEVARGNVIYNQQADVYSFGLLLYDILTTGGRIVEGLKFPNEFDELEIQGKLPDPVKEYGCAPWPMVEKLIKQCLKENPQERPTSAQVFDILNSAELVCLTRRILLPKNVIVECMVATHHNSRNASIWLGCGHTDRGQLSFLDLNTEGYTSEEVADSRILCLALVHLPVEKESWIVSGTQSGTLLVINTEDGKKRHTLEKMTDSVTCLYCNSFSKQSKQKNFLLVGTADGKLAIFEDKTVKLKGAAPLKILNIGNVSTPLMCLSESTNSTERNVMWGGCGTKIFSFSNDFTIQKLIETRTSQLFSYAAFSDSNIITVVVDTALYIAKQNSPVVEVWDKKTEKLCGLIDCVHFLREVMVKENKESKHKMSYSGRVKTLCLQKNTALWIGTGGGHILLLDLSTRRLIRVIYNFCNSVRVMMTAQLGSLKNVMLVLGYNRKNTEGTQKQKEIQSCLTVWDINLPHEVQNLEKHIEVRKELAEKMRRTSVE

On to `C[C@@H]1CN(c2ccc(Nc3ncc(C4CC4)c(OCC4CCC(O)CC4)n3)cc2)C[C@H](C)O1` (stereo partly drawn) [Example 129, 4-(((5-cyclopropyl-2-((4-((2S,6R)-2,6-dimethylmorpholino)phenyl)amino)pyrimidin-4-yl)oxy)methyl)cyclohexan-1-ol], for which the IC50 was less than 0.05 µM.

As for `CCc1nn(C)cc1Nc1ncc(F)c(OC[C@H]2CC[C@H](NC(C)=O)CC2)n1` [Example 198, N-((1R,4R)-4-(((2-((3-ethyl-1-methyl-1H-pyrazol-4-yl)amino)-5-fluoropyrimidin-4-yl)oxy)methyl)cyclo-hexyl)acetamide], the 50% inhibitory concentration (IC50) is less than 0.05 µM. For `O[C@H]1CC[C@H](COc2nc(Nc3cnn(C4CCOCC4)c3C3CC3)ncc2F)CC1` [Example 236, (1R,4R)-4-(((2-((5-cyclopropyl-1-(tetrahydro-2H-pyran-4-yl)-1H-pyrazol-4-yl)amino)-5-fluoropyrimidin-4-yl)oxy)methyl)cyclohexan-1-ol], the IC50 is less than 0.05 µM. `CC(=O)N1CC2(CC(COc3nc(Nc4ccc(N5C[C@@H](C)O[C@@H](C)C5)cc4)ncc3F)C2)C1` [Example 97]: the IC50 is more than 0.4 µM. With `Cc1nn(C(C)(C)C#N)cc1Nc1ncc(Cl)c(OCC2(F)CCN(C)CC2)n1` [Example 61, 2-(4-((5-chloro-4-((4-fluoro-1-methylpiperidin-4-yl)methoxy)pyrimidin-2-yl)amino)-3-methyl-1H-pyrazol-1-yl)-2-methylpropanenitrile], the concentration for half-maximal inhibition (IC50) was less than 0.05 µM. On to `Cc1nn(C(C)(C)C#N)cc1Nc1ncc(Cl)c(OCC2CCC(O)CC2)n1` (centres unmarked) [Example 121, 2-(4-((5-chloro-4-((4-hydroxycyclohexyl)methoxy)pyrimidin-2-yl)amino)-3-methyl-1H-pyrazol-1-yl)-2-methylpropanenitrile], for which the concentration for half-maximal inhibition (IC50) is less than 0.05 µM. For `Cc1nn(C(C)(C)C#N)cc1Nc1ncc(F)c(OCC2CCNCC2)n1` [Example 18, 2-(4-((5-fluoro-4-(piperidin-4-ylmethoxy)pyrimidin-2-yl)amino)-3-methyl-1H-pyrazol-1-yl)-2-methylpropanenitrile] the value was 0.05 to 0.2 µM; for `Cn1ccc(Nc2nccc(OC[C@H]3CC[C@@H](N)CC3)n2)n1` [Example 3, 4-(((1S,4S)-4-aminocyclohexyl)methoxy)-N-(1-methyl-1H-pyrazol-3-yl) pyrimidin-2-amine], 0.05 to 0.2 µM; for `CC(=O)NC12CCC(COc3ccnc(Nc4cn(C(C)(C)C#N)nc4C)n3)(CC1)CC2` [Example 78, N-(4-(((2-((1-(2-cyanopropan-2-yl)-3-methyl-1H-pyrazol-4-yl)amino)pyrimidin-4-yl)oxy)methyl)bicyclo [2.2.2]octan-1-yl)acetamide], 0.2 to 0.4 µM.

Take `COc1cnc(Nc2ccc(N3CCOCC3)cc2)nc1OC[C@H]1CC[C@H](N)CC1` [Example 8, 4-(((1R,4R)-4-aminocyclohexyl)methoxy)-5-methoxy-N-(4-morpholinophenyl) pyrimidin-2-amine]: the concentration for half-maximal inhibition (IC50) was less than 0.05 µM. For `Cc1nn(C2CC(C#N)C2)cc1Nc1ncc(Cl)c(OCC2CC3(COC3)C2)n1` (centres unmarked) [Example 151, 3-(4-((4-((2-oxaspiro[3.3]heptan-6-yl)methoxy)-5-chloropyrimidin-2-yl)amino)-3-methyl-1H-pyrazol-1-yl)cyclobutane-1-carbonitrile] the value was less than 0.05 µM.

For `Fc1cnc(Nc2ccc(N3CCOCC3)cc2)nc1OCC1CCC(F)(F)CC1` [Example 268, 4-((4,4-difluorocyclohexyl)methoxy)-5-fluoro-N-(4-morpholinophenyl)pyrimidin-2-amine], the IC50 was 0.05 to 0.2 µM. For `Cc1nn(C2CC(C#N)C2)cc1Nc1ncc(Cl)c(OCC2(F)CN(C)C2)n1` (centres unmarked) [Example 69, 3-(4-((5-chloro-4-((3-fluoro-1-methylazetidin-3-yl)methoxy)pyrimidin-2-yl)amino)-3-methyl-1H-pyrazol-1-yl)cyclobutane-1-carbonitrile], the IC50 is more than 0.4 µM.

As for `O[C@H]1CC[C@H](COc2nc(Nc3cn(C4CC4)nc3Cl)ncc2F)CC1` [Example 239, (1R,4R)-4-(((2-((3-chloro-1-cyclopropyl-1H-pyrazol-4-yl)amino)-5-fluoropyrimidin-4-yl)oxy)methyl)cyclohexan-1-ol], the IC50 lay within 0.2 to 0.4 µM.

With `Cc1nn(C(C)(C)C#N)cc1Nc1ncc(C#N)c(OCC2CC(F)(F)C2)n1` [Example 155, 2-((1-(2-cyanopropan-2-yl)-3-methyl-1H-pyrazol-4-yl)amino)-4-((3,3-difluorocyclobutyl)methoxy)pyrimidine-5-carbonitrile], the 50% inhibitory concentration (IC50) was in the range of 0.05 to 0.2 µM. `Cc1nn(C(C)(C)C#N)cc1Nc1ncc(F)c(OCC2CCC(C#N)CC2)n1` (racemic) [Example 274, 4-(((2-((1-(2-cyanopropan-2-yl)-3-methyl-1H-pyrazol-4-yl)amino)-5-fluoropyrimidin-4-yl)oxy)methyl)cyclohexane-1-carbonitrile]: the IC50 was less than 0.05 µM. For `Cc1nn(C(C)(C)C#N)cc1Nc1ncc(Cl)c(OCC2CCC(C)(O)CC2)n1` (centres unmarked) [Example 135, 2-(4-((5-chloro-4-((4-hydroxy-4-methylcyclohexyl)methoxy)pyrimidin-2-yl)amino)-3-methyl-1H-pyrazol-1-yl)-2-methylpropanenitrile], the half-maximal inhibitory concentration (IC50) was less than 0.05 µM.

For `Cc1nn(C(C)(C)C#N)cc1Nc1ncc(Cl)c(OCC2CCC(C(F)(F)F)CC2)n1` (centres unmarked) [Example 157, 2-(4-((5-chloro-4-((4-(trifluoromethyl)cyclohexyl)methoxy)pyrimidin-2-yl)amino)-3-methyl-1H-pyrazol-1-yl)-2-methylpropanenitrile], the IC50 was 0.05 to 0.2 µM.

On to `CCN1CCN(c2ccc(Nc3nccc(OCC4CCC(O)CC4)n3)nc2)CC1` (centres unmarked) [Example 133, 4-(((2-((5-(4-ethylpiperazin-1-yl)pyridin-2-yl)amino)pyrimidin-4-yl)oxy)methyl)cyclohexan-1-ol], for which the IC50 is more than 0.4 µM. For `Cc1nn(C(C)(C)C#N)cc1Nc1ncc(F)c(OC[C@@H]2CCC[C@@H](O)C2)n1` [Example 250, 2-(4-((5-fluoro-4-(((1R,3R)-3-hydroxycyclohexyl)methoxy)pyrimidin-2-yl)amino)-3-methyl-1H-pyrazol-1-yl)-2-methylpropanenitrile] the value was less than 0.05 µM; for `O[C@H]1CC[C@H](COc2nc(Nc3cnn(C4COC4)c3)ncc2F)CC1` [Example 227, (1R,4R)-4-(((5-fluoro-2-((1-(oxetan-3-yl)-1H-pyrazol-4-yl)amino)pyrimidin-4-yl)oxy)methyl)cyclohexan-1-ol], 0.2 to 0.4 µM; for `Cc1nn(C(C)(C)C#N)cc1Nc1ncc(Cl)c(OCC2CCN(C)CC2)n1` [Example 57, 2-(4-((5-chloro-4-((1-methylpiperidin-4-yl)methoxy)pyrimidin-2-yl)amino)-3-methyl-1H-pyrazol-1-yl)-2-methylpropanenitrile], 0.05 to 0.2 µM. On to `C[C@@H]1CN(c2ccc(Nc3ncc(F)c(OCC4CCC(F)(F)CC4)n3)cc2)C[C@H](C)O1` [Example 269, 4-((4,4-difluorocyclohexyl)methoxy)-N-(4-((2R,6S)-2,6-dimethylmorpholino)phenyl)-5-fluoropyrimidin-2-amine], for which the 50% inhibitory concentration (IC50) lay in the range of 0.2 to 0.4 µM. With `CC(=O)N[C@H]1CC[C@H](COc2nc(Nc3cnn(C(C)(C)C#N)c3C)ncc2F)CC1` [Example 199, N-((1R,4R)-4-(((2-((1-(2-cyanopropan-2-yl)-5-methyl-1H-pyrazol-4-yl)amino)-5-fluoropyrimidin-4-yl)oxy)methyl)cyclo-hexyl)acetamide], the IC50 is less than 0.05 µM. For the molecule `CC(=O)N1CCC(COc2nc(Nc3ccc(N4CCOCC4)cc3)ncc2F)C(F)C1` (single isomer, unassigned) [Example 173, 1-(3-fluoro-4-(((5-fluoro-2-((4-morpholinophenyl)amino)pyrimidin-4-yl)oxy)methyl)piper-idin-1-yl)ethan-1-one], the IC50 was less than 0.05 µM. For `OC12CCC(COc3ccnc(Nc4ccc(N5CCOCC5)cc4)n3)(CC1)CC2` [Example 140, 4-(((2-((4-morpholinophenyl)amino)pyrimidin-4-yl)oxy)methyl)bicyclo[2.2.2]octan-1-ol] the value was more than 0.4 µM; for `Cc1nc(Nc2ccc(N3C[C@@H](C)O[C@@H](C)C3)cc2)nc(OC[C@H]2CC[C@H](O)CC2)c1F` [Example 266, (1R,4R)-4-(((2-((4-((2S,6R)-2,6-dimethylmorpholino)phenyl)amino)-5-fluoro-6-methylpyrimidin-4-yl)oxy)methyl)cyclohexan-1-ol], more than 0.4 µM. With `COc1nn(C2CC2)cc1Nc1ncc(F)c(OC[C@H]2CC[C@H](NC(C)=O)CC2)n1` [Example 208, N-((1R,4R)-4-(((2-((1-cyclopropyl-3-methoxy-1H-pyrazol-4-yl)amino)-5-fluoropyrimidin-4-yl)oxy)methyl)cyclo-hexyl)acetamide], the IC50 was less than 0.05 µM. For `CC(=O)N[C@H]1CC[C@H](COc2nc(Nc3cnn(C(F)(F)F)c3)ncc2F)CC1` [Example 187, N-((1R,4R)-4-(((5-fluoro-2-((1-(trifluoromethyl)-1H-pyrazol-4-yl)amino)pyrimidin-4-yl)oxy)methyl)cyclo-hexyl)acetamide] the value was 0.2 to 0.4 µM; for `CC(C)(O)[C@H]1CC[C@H](COc2nc(Nc3ccc(N4C5CCC4COC5)cc3)ncc2F)CC1` [Example 254, 2-((1S,4S)-4-(((2-((4-(3-oxa-8-azabicyclo[3.2.1]octan-8-yl)phenyl)amino)-5-fluoropyrimidin-4-yl)oxy)methyl)cyclohexyl)propan-2-ol], 0.05 to 0.2 µM; for `CN[C@H]1CC[C@H](COc2nc(Nc3cn(C(C)(C)C#N)nc3C)ncc2C)CC1` [Example 44, 2-methyl-2-(3-methyl-4-((5-methyl-4-(((1R,4R)-4-(methylamino)cyclo-hexyl)methoxy)py-rimidin-2-yl)amino)-1H-pyrazol-1-yl)propanenitrile], less than 0.05 µM.

On to `Cc1nn(C2CC(C#N)C2)cc1Nc1ncc(Cl)c(OCC2CCNCC2F)n1` (centres unmarked) [Example 26, 3-(4-((5-chloro-4-((3-fluoropiperidin-4-yl)methoxy)pyrimidin-2-yl)amino)-3-methyl-1H-pyrazol-1-yl)cyclobutane-1-carbonitrile], for which the IC50 is 0.05 to 0.2 µM.

In general, IC50 refers to the midpoint of a concentration-inhibition curve.
